From PMC6123691, “Structural basis for promotion of duodenal iron absorption by enteric ferric reductase with ascorbate” (Communications Biology, 2018)

T1: duodenal cytochrome b (Dcytb) (Homo sapiens, UniProt Q53TN4)
T1 construct: gene CYBRD1; full-length Dcytb (residues 1–286); atomic model residues 6–230
T1 sequence (Q53TN4 1-286): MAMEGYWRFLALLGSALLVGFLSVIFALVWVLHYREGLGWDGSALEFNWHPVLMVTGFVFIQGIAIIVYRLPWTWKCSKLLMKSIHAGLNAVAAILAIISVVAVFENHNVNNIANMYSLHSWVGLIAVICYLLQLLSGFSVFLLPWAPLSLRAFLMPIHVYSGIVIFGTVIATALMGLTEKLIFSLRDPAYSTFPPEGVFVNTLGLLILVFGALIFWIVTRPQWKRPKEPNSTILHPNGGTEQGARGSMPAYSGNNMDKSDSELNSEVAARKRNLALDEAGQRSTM


How the values were obtained:
[1] = molecular target: T1, duodenal cytochrome b (Dcytb); assay: X-ray crystal structure ([…] Å, soaked with […] sodium ascorbate and ZnSO4); stopped-flow heme reduction; format: binding
[2] = molecular target: the molecule itself; assay: crystal structure; lipidic cubic phase (monoolein) crystals, space group C2; substrate-free form at 2.6 Å and Zn2+/ascorbate-soaked form at 2.8 Å; the dimer is formed by crystallographic twofold symmetry

Molecule | X-ray crystal structure (2.8 Å, soaked with 1 M sodium ascorbate and ZnSO4); sto [1] | stoichiometry N [2]
O=C1O[C@H]([C@@H](O)CO)C(O)=C1O [Asc, ascorbate] | The electron density from one ascorbate molecule was observed on the cytoplasmic surface of Dcytb in proximity to the heme | –
human duodenal cytochrome b (Dcytb) (enzyme, UniProt Q53TN4 1-286, looked up, human duodenal cytochrome b (Dcytb), member of the cytochrome b561 family, full-length, residues 1-286; codon-optimized gene; the atomic model includes only residues 6-230; A thrombin cleavage site stood between the protein and the C-terminal hexa-His tag (pET-21b(+)); after cleavage some residues of the site may remain at the C-terminus; Integral membrane protein, solubilised in DDM and …) MAMEGYWRFLALLGSALLVGFLSVIFALVWVLHYREGLGWDGSALEFNWHPVLMVTGFVFIQGIAIIVYRLPWTWKCSKLLMKSIHAGLNAVAAILAIISVVAVFENHNVNNIANMYSLHSWVGLIAVICYLLQLLSGFSVFLLPWAPLSLRAFLMPIHVYSGIVIFGTVIATALMGLTEKLIFSLRDPAYSTFPPEGVFVNTLGLLILVFGALIFWIVTRPQWKRPKEPNSTILHPNGGTEQGARGSMPAYSGNNMDKSDSELNSEVAARKRNLALDEAGQRSTM | – | 2
